Read-outs that look alike come from different tables or passages of the source.
What was measured:
[1] = test system: Tsc1^± mice; parameters: method as in PMID 25081057; settings: 28 mg/kg IP; heterozygote Tsc1^± mice; cited from earlier work
[2] = target: T1, GluN1/GluN2D (Rattus norvegicus, UniProt Q62645); parameters: GluN2B (NM_012574.1), GluN2C (NM_012575.3), and GluN2D (NM_022797.2) were provided by; expressed in transfected cells; host or cells: Xenopus laevis oocytes (cRNA injection); settings: cited from earlier work
[3] = target: T1, GluN1/GluN2D; assay: Whole-cell voltage-clamp recordings, HEK cells, GluN1/GluN2D (agonist dependence); assay type: cell-based
Description: (§1) We previously described the actions of the GluN2C/GluN2D-preferring negative allosteric modulator DQP-1105 as dependent on glutamate (but not glycine) binding, in that DQP-1105 affinity increases after GluN1/GluN2D NMDARs bind glutamate.[32] […] The concentration-dependent relaxation is indicative of an agonist-induced increase in potency that leads to re-equilibration of the inhibitor after agonist binding induces an increase in inhibitor affinity. We investigated the glutamate dependence of compound 2i (GluN1/GluN2D, Figure 4; GluN1/GluN2C, Figure S2), DQP-1105 (Figure S1), and compound (S)-2a (DQP-69;[33]Figure S3) using the same protocols.
(§2) We preincubated cells with glycine and the inhibitor 2i (DQP-997-74) and compared inhibitor potency during the peak and steady-state current responses to glutamate application. […] To investigate the time course of 2i inhibition, we fitted the relaxation of the current response with a single exponential function. If the current response time course reflects 2i binding, then the reciprocal of τinhibition should be linearly related to its concentration, with the slope equal to kON and intercept equal to kOFF. […] The deactivation of GluN1/GluN2D receptors (5.3 ± 0.2 s) was slowed by the presence of compound 2i when applied at concentrations of 0.1 μM (7.3 ± 0.3 s; p = 0.017) and 0.3 μM (10.5 ± 1.0 s; p = 0.002) but not at 0.03 μM (5.6 ± 0.3 s; p = 0.518; Figure 4E). […] This phenomenon was previously discovered for QNZ-46, a glutamate-dependent GluN2C/2D-selective inhibitor with a different structural core.[42] As proposed in that study, the prolonged deactivation may indicate that 2i slows a conformational change necessary for glutamate unbinding or 2i may need to unbind before glutamate can unbind.
(§3) In addition, we evaluated how glutamate dependence affects inhibition of responses to brief agonist applications similar to phasic glutamate release that occurs at synapses. To do so, we preincubated cells expressing GluN1/GluN2D receptors with the inhibitor 2i and then applied trains of five brief pulses of NMDA (which dissociates more rapidly than glutamate) and glycine from a pressurized micropipette to mimic repetitive synaptic transmission (Figure 4F). We measured the peak amplitude and compared the concentration–response curves for the inhibition of the first and last response (Figure 4G). The initial train of pulses in the absence of drug controls for systematic errors such as internalization of receptors.
(§4) To further evaluate whether 2i followed the law of mass action, we coapplied different concentrations of 2i with glutamate during the steady-state glutamate and glycine responses of GluN1/GluN2D receptors expressed in HEK cells (Figure 4H). […] We also fitted the onset and offset time course of the inhibition produced by compound 2i with a single exponential function (Figure 4J).
(§5) HEK293 cells (HEK, ATCC CRL-1573) were plated on glass coverslips pretreated with 0.1 mg/mL poly-D-lysine and cultured in Dulbecco’s modified Eagle medium (DMEM) plus Glutamax (GIBCO 10569-10) supplemented with 10% fetal bovine serum, 10 U/mL of penicillin, and 10 μg/mL of streptomycin at 37 °C and 5% CO2. The cells were transiently transfected with cDNA encoding rat GluN1, GluN2D, and eGFP at a ratio of 1:1:5 by using the calcium phosphate precipitation method.[48] After 24–48 h following the transfection, the cells were perfused with external recording solution that contained (in mM) 3 KCl, 150 NaCl, 0.01 EDTA, 1.0 CaCl2, 10 HEPES, and 22 D-mannitol (the pH was adjusted to 7.4 with NaOH). The patch electrodes (resistance 3–5 MΩ) were prepared from thin-walled glass micropipettes (TW150F-4, World Precision Instruments, Sarasota, FL) by a dual-stage glass micropipette puller (PC-10, Narishige, Tokyo, Japan) and filled with internal solution containing (in mM) 110 D-gluconate, 110 CsOH, 30 CsCl, 5 HEPES, 4 NaCl, 0.5 CaCl2, 2 MgCl2, 5 BAPTA, 2 NaATP, and 0.3 NaGTP. […]

[4] = target: GluN1/GluN2D (Rattus norvegicus, UniProt P35439+Q62645); assay: as above; assay type: cell-based
Description: as §1, §2, §3, §4, §5

T1 sequence (Q62645 28-1323, other chains not shown): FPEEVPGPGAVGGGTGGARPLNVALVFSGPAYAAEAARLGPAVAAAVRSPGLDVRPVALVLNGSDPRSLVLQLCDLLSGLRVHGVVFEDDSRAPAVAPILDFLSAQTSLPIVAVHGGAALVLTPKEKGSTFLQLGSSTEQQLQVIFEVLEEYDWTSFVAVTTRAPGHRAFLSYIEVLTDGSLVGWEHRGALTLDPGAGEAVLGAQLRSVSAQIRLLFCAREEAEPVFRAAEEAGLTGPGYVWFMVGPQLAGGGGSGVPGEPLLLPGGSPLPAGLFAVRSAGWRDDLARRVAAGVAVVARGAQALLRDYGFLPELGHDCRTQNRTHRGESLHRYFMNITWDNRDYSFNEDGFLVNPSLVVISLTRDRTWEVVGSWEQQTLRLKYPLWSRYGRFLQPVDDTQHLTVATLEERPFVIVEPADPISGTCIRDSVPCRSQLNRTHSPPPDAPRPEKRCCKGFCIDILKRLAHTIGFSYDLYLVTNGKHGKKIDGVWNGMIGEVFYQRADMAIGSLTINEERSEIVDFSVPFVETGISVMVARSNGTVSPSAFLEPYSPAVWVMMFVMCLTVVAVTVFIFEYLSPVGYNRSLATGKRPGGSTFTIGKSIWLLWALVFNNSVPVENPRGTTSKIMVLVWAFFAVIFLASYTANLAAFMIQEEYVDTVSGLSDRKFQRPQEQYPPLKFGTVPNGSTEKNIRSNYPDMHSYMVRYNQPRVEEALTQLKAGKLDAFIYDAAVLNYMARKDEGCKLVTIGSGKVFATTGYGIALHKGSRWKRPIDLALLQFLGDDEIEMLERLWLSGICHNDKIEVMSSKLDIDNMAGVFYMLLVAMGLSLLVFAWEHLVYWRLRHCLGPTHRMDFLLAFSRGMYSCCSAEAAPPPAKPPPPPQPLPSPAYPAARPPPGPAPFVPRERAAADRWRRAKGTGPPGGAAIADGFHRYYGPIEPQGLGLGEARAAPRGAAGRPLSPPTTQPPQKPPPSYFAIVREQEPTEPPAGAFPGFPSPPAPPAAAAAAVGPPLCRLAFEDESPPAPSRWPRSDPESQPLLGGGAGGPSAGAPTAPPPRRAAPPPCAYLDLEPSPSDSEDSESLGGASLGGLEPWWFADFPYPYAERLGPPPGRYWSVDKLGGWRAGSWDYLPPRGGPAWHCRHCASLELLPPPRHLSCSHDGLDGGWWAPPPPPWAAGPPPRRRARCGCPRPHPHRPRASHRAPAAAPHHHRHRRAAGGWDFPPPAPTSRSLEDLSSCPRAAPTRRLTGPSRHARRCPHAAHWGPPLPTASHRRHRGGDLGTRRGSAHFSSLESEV
GluN1/GluN2D (Rattus norvegicus, UniProt P35439+Q62645), sequence (Q62645 28-1323, other chains not shown): as above

τdeactivation following glutamate removal ([3]; 0.3 μM compound, mean ± SEM): 6.6 ± 0.3 s
τdeactivation following glutamate removal ([3]; 1 μM compound, mean ± SEM): 6.9 ± 0.4 s
τdeactivation following glutamate removal ([3]; 3 μM compound, mean ± SEM): 8.0 ± 0.4 s
fold-change in IC50 for the peak and steady-state current responses ([3]; mean ± SEM, compared by ANOVA): 2.1 ± 0.2
IC50 fold higher during peak compared to steady-state ([3]; ratio of IC50 values): 1.9 fold
IC50 fold higher at first pulse compared to fifth pulse ([3]; trains of brief agonist applications): 3 fold
koff ([4]; HEK293, inhibitor preapplied, linear regression of 1/τinhibition vs concentration): 0.19 s⁻¹
IC50 ([4]; fifth of 5 brief NMDA (500 μM)/glycine (250 μM) pulses at 1 s intervals, read-out: IC50 pulse 5 (95% CI)): 1600 nM
IC50 ([4]; first of 5 brief NMDA (500 μM)/glycine (250 μM) pulses at 1 s intervals, read-out: IC50 pulse 1 (95% CI)): 4900 nM
Kd ([4]; inhibitor preapplied, from kON and kOFF, supplement): 400 nM
IC50 ([4]; peak current response to glutamate, inhibitor preapplied, read-out: IC50 peak (95% CI)): 1400 nM
IC50 ([4]; steady-state current response to glutamate, inhibitor preapplied, read-out: IC50 steady-state (95% CI)): 720 nM
Structure (SMILES): Cc1ccc2[nH]c(=O)c(C3=NN(C(=O)CCC(=O)O)C(c4ccc(Br)cc4)C3)c(-c3ccccc3)c2c1 (centres unmarked) [compound 1, reference compound]
effect on seizure burden [1]: diminished seizure burden
IC50 [2]: 2700 nM
